Values quoted from earlier work, collected in patent US11185565B2, “Compositions including milk thistle and methods of use” (GM Pharmaceuticals, Inc., priority 2019, dated 2021).

Assays:
[1] = addition of chromium to carbohydrate-rich meals
[2] = additional chromium in drinking water; obese and insulin resistant mammals
[3] = deficiency in PQQ, mammals

SMILES | reduction in blood sugar after the carbohydrate-rich meals [1] [%] | glucose disposal rates and insulin-stimulated signaling in skeletal muscles [2] | decrease in metabolic rate [3] [%]
[Cr] [chromium] | > 20 | significantly improved | 
O=C(O)c1cc(C(=O)O)c2c(n1)C(=O)C(=O)c1cc(C(=O)O)[nH]c1-2.[Na].[Na] [PQQ, pyrroloquinoline quinone disodium] |  |  | ~10
